Experimental data reported in US8383616B2, “Aryl isoxazole compounds with antitumoural activities” (Sigma-Tau Industrie Farmaceutiche Riunite SpA, priority 2008, dated 2013).

Legend:
[1] = biological target: T1, Hsp90 (Homo sapiens, UniProt P07900); assay: Fluorescence polarization (FP) binding assay, displacement of GM-BODIPY; settings: GM-BODIPY tracer, 125 nM Hsp90, 4 h at 4° C.; read-out: F.P. binding assay IC50
T1 construct: purchased Stressgen SPP-776
Description: Fluorescence Polarization (FP)
GM-BODIPY (PerkinElmer, CUSN60342000MG) was previously dissolved in DMSO to obtain 10 mM stock solutions and kept at −20° C. until use.
The compounds were previously dissolved in DMSO to obtain stock solutions and kept at −20° C. The day of experiment, the compounds were prepared by serial dilutions in HFB. Before each use, 0.1 mg/ml Bovine Gamma globulin and 2 mM DTT were freshly added.
The plate was mixed on a shaker at 4° C. for 4 hours, and the FP values in mP (millipolarization units) were recorded. […] Curve fitting was performed using Prism GraphPad software program (GraphPad software, Inc., San Diego, Calif.).
Curve fitting was performed using Prism GraphPad software program (GraphPad software, Inc., San Diego, Calif.).

[2] = tested on: NCI-H460 non-small cell lung carcinoma cells; assay: Cytotoxicity assay (sulphorodamine B test), NCI-H460; format: cell-based; settings: Homo sapiens, NCI-H460, 72-h exposure
Description: To evaluate the effect of the compounds on cells survival, the sulphorodamine B test was used. To test the effects of the compounds on cell growth, NCI-H460 non-small cell lung carcinoma cells were used. Tumour cells were grown in RPMI 1640 containing 10% fetal bovine serum (GIBCO).
(§1) Tumour cells were seeded in 96-well tissue culture plates at approximately 10% confluence and were allowed to attach and recover for at least 24 h. Varying concentrations of the drugs were then added to each well to calculate their IC50 value (the concentration which inhibits the 50% of cell survival). The plates were incubated at 37° C. for 72 h. At the end of the treatment, the plates were washed by removal of the supernatant and addition of phosphate buffered saline (PBS) 3 times. 200 μl PBS and 50 μl of cold 80% trichloroacetic acid (TCA) were added. The plates were incubated on ice for at least 1 h. TCA was removed, the plates were washed 3 times by immersion in distilled water and dried on paper and at 40° C. for 5 min. Then 200 μl of 0.4% sulphorodamine B in 1% acetic acid were added. The plates were incubated at RT for 30 min. Sulphorodamine B was removed, the plates were washed by immersion in 1% acetic acid for 3 times, then they were dried on paper and at 40° C. for 5 min. Then, 200 μl Tris 10 mM were added, the plates were kept under stirring for 20 min. The cell survival was determined as optical density by a Multiskan spectrofluorimeter at 540 nm. The amount of cells killed was calculated as the percentage decrease in sulphorodamine B binding compared with control cultures.
(§2) The IC50 values were calculated with the “ALLFIT” program.
(§3) The antiproliferative IC50 was evaluated as drug concentration required for 50% reduction of cell growth as compared with untreated controls after 72-h exposure to the drug. The IC50±SD values reported were calculated by ALLFIT program.

[3] = tested on: human epithelial carcinoma cell line A431; assay: Cytotoxicity assay (sulphorodamine B test), A431; format: cell-based; settings: Homo sapiens, A-431, 72-h exposure
Description: as §1, §2
The antiproliferative activity of novel Hsp90 inhibitors was evaluated on NCI-H460 non-small cell lung carcinoma cells and on a human epithelial carcinoma cell line A431.
as §3

Row | SMILES | IC50 [1] [µM] | IC50 [2] [µM] | IC50 [3] [µM]
1 | CCNC(=O)c1noc(-c2cc(Cl)c(O)cc2O)c1NCc1sccc1C [Example 28, 4-((3-methylthiophen-2-yl)methylamino)-5-(5-chloro-2,4-dihydroxyphenyl)-N-ethylisoxazole-3-carboxamide] | 0.1 to 1 | 1 to 10 | 1 to 10
2 | CCNC(=O)c1noc(-c2cc(Cl)c(O)cc2O)c1NC1CCCCC1 [Example 29, 5-(5-chloro-2,4-dihydroxyphenyl)-4-(cyclohexylamino)-N-ethylisoxazole-3-carboxamide] | 0.1 to 1 | 1 to 10 | 1 to 10
3 | CCNC(=O)c1noc(-c2cc(Cl)c(O)cc2O)c1NC1CCN(C)CC1 [Example 30, 4-(1-methylpiperidin-4-ylamino)-5-(5-chloro-2,4-dihydroxyphenyl)-N-ethylisoxazole-3-carboxamide] | 1 to 10 | 1 to 10 | 1 to 10
4 | CCNC(=O)c1noc(-c2cc(Cl)c(O)cc2O)c1NCc1cc(C(=O)OC)no1 [Example 31, Methyl 5-((3-(ethylcarbamoyl)-5-(5-chloro-2,4-dihydroxyphenyl)isoxazol-4-ylamino)methyl)isoxazole-3-carboxylate] | < 0.1 | 1 to 10 | 1 to 10

Now from value to compound, other results behind:

Row | IC50 [1] [µM] | SMILES | IC50 [2] [µM] | IC50 [3] [µM]
5 | 0.1 to 1 | CCCCC[C@H]1CC[C@H](C(=O)Nc2c(C(=O)NCC)noc2-c2cc(C(C)C)c(O)cc2O)CC1 [Example 20, 5-(2,4-dihydroxy-5-isopropyl-phenyl)-4-[(trans-4-pentyl-cyclohexanecarbonyl)-amino]-isoxazole-3-carboxylic acid ethylamide] | 1 to 10 | 1 to 10
6 | 0.1 to 1 | CCNC(=O)c1noc(-c2cc(C(C)C)c(O)cc2O)c1NC(=O)C1CCC(C(F)(F)F)CC1 (stereo not drawn) [Example 21, 5-(2,4-dihydroxy-5-isopropyl-phenyl)-4-[(4-trifluoromethyl-cyclohexanecarbonyl)-amino]-isoxazole-3-carboxylic acid ethylamide] | < 0.1 | < 0.1
7 | < 0.1 | CCNC(=O)c1cc(C(=O)Nc2c(C(=O)NCC)noc2-c2cc(C(C)C)c(O)cc2O)on1 [Example 22, N^5-(3-(ethylcarbamoyl)-5-(2,4-dihydroxy-5-isopropylphenyl)-isoxazol-4-yl)-N^3-ethylisoxazole-3,5-dicarboxamide] | 1 to 10 | 1 to 10
8 | 0.1 to 1 | CCNC(=O)c1noc(-c2cc(Cl)c(O)cc2O)c1NCc1ccc(OC)cc1 [Example 27, 4-(4-methoxybenzylamino)-5-(5-chloro-2,4-dihydroxyphenyl)-N-ethylisoxazole-3-carboxamide] | 1 to 10 | 1 to 10
9 | 0.1 to 1 | CCNC(=O)c1noc(-c2cc(Cl)c(O)cc2O)c1NCc1cc(CO)no1 [Example 32, 4-((3-(hydroxymethyl)isoxazol-5-yl)methylamino)-5-(5-chloro-2,4-dihydroxyphenyl)-N-ethylisoxazole-3-carboxamide] | 1 to 10 | 1 to 10
10 | 0.1 to 1 | COc1ccc(C(=O)Nc2c(C(=O)NCC(F)(F)F)noc2-c2cc(Cl)c(O)cc2O)cc1 [Example 33, 4-(4-methoxybenzamido)-5-(5-chloro-2,4-dihydroxyphenyl)-N-(2,2,2-trifluoroethyl)-isoxazole-3-carboxamide] | 1 to 10 | 0.1 to 1
